97 molecules from PubChem BioAssay AID1117319 (Southern Research Institute, 2015) can be followed below.

“And” between values parts separate entries of the source, which are not always exact repeats. Equal values may be shown once. Results filed as inconclusive are left out.

For this assay, the target named is Virion infectivity factor (Human immunodeficiency virus type 1 group M subtype B (isolate BH10)) + Virion infectivity factor (Human immunodeficiency virus type 1 group M subtype B (isolate BRU/LAI)) + Virion infectivity factor (Human immunodeficiency virus type 1 group M subtype B (isolate PCV12)) + Virion infectivity factor (Human immunodeficiency virus type 1 group M subtype B (isolate HXB2)) + DNA dC->dU-editing enzyme APOBEC-3G (Homo sapiens) (UniProt P69720+P69721+P69722+P69723+Q9HC16). Description: HIV-1 Vif–A3G interaction blockers – biochemical, TR-FRET, GST-Vif 1-94, biotin-A3G peptide, dose response retest, primary screen (AID 1117319).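 Also: Vif residues 1-94 fused to GST binding biotinylated APOBEC3G peptide 110-148.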 The conditions noted are these: TR-FRET GST-Vif / biotin-A3G peptide binding. Background: TR-FRET usually uses a lanthanide donor and a delayed reading to cut background.
Take `CC1(C)CC2(CC(c3ccccc3F)c3ccc(O)c(O)c3O2)NC(=S)N1` (configuration not stated): the half-inhibitory concentration (IC50) (usually the concentration at which inhibition is half-maximal) was 13.7 µM.
Regarding `COc1cc(-c2nnc(SCc3cc(=O)oc4cc(O)c(O)cc34)o2)cc(OC)c1OC`, the IC50 was 8.36 µM.
As for `Cc1ccc(C(=O)N/N=C\c2cc(Br)c(Br)o2)cn1`, the figure is 6.24 µM.
The result for `CCOc1cccc(=O)c2c(C)n(-c3ccc(C(=O)O)cc3)c(C)c12` reads 4.49 µM.
For `O=c1cc(CO)oc(C(Nc2ccccn2)c2ccc(F)cc2)c1O` (configuration not stated), the IC50 is 85.7 µM.
For `O=C1CC=C2C3CC4N(CCC45c4cc(O)c(O)cc4N1C25)CC3=CCBr` (configuration not stated), the IC50 was 0.7 µM.
With `Cc1ccc(N(CC(=O)NCCSCc2ccco2)S(=O)(=O)c2ccc(F)cc2)cc1`, the IC50 was 10.9 µM.
Turning to `CC1OC(CC(=O)O)CC2=C1C(=O)c1c(O)cccc1C2=O` (configuration not stated), the IC50 was 4.16 µM.
As for `Cc1ccc(NC(=O)CN(C)C(=O)c2cccc(-n3cccc3)c2)cc1`, the figure is 4.56 µM; as for `CSc1nc(N2CCOCC2)c2c3c(sc2n1)CCC3`, 42.1 µM.
As for `CC(CNc1ccccc1O)C(=O)O` (configuration not stated), the figure is 6.17 µM; as for `O=C1CCC/C(=N\NC(=O)c2ccc(COc3cccc4cccnc34)cc2)C1`, 17.1 µM; as for `CN(C)c1cc(Cl)c2nonc2c1N`, 11.9 µM.
As for `C/C(=C\C(=O)c1ccc(C)cc1)Nc1cccc(O)c1`, the figure is 53.3 µM; as for `O=C(NCCO)Nc1ccc2nc(-c3ccco3)c(-c3ccco3)nc2c1`, 0.24 µM; as for `CCCCC1=CC2=CC(=O)C(C)(OC(=O)C3CCCC3)C(=O)C2=CO1` (configuration not stated), 15.2 µM.
Regarding `O=C1CCCC/C1=C/Nc1ccc2c(c1)OCO2`, the IC50 was 5.94 µM.
As for `O=C(Nc1ccc(F)cc1F)c1noc2c1CCC2`, the IC50 is 12.8 µM.
With `O=C(O)CSc1c2c(nc3cc(C(=O)N4CCOCC4)ccc13)CCCC2`, the IC50 was 5.6 µM.
For `Nc1ccc(S(=O)(=O)c2cc(O)c3ccccc3c2O)cc1`, the IC50 is 24.8 µM.
The result for `O=C(O)c1ccc(S(=O)(=O)c2ccc([N+](=O)[O-])cc2[N+](=O)[O-])cc1` reads 53.3 µM; that for `O=S(=O)(c1ccc2nc(-c3ccco3)c(-c3ccco3)nc2c1)N1CCOCC1`, 6.38 µM and 3.81 µM; that for `O=C1CC(Nc2ccc(N3CCOCC3)cc2)C(=O)N1Cc1ccccc1` (configuration not stated), 2.29 µM.
`O=C1OC(c2ccc3ccccc3c2O)(c2ccc3ccccc3c2O)c2ccccc21`: the IC50 was 9.39 µM.
In the case of `Cc1oc(-c2ccc(Cl)cc2)cc1-c1nn2c(-c3ccoc3C)nnc2s1`, the IC50 was 1.04 µM.
The result for `Cc1cc(C(=O)Nc2sc3c(c2C#N)CCCCC3)cs1` reads 95.9 µM; that for `Cc1ccc2c(c1C)NC(C(=O)O)C1CC=CC21` (configuration not stated), 0.59 µM.
For the molecule `O=C(/C=C/c1ccco1)NC(=S)Nc1ccc(C(=O)O)cc1`, the IC50 was 16.1 µM.
`Oc1ccc(C[C@H]2NCCc3cc(O)c(O)cc32)cc1O`: the concentration for half-maximal inhibition (IC50) was 9.77 µM.
`CCN(CC)CCN1C(=O)c2ccccc2NC1c1ccc(N(C)C)cc1` (configuration not stated): the IC50 is 90.1 µM.
The result for `O=c1c2cc(N3CCOCC3)ccc2[nH]c(=S)n1Cc1ccco1` reads 7.24 µM; that for `CCOC(=O)c1ccc2c(c1)C1C=CCC1C(C(=O)O)N2` (configuration not stated), 1.25 µM; that for `C[c-]1[c-](C)[c-](C)[c-](C)[c-]1C.[Fe].c1cc2nccc(N3CCCC3)[c-]2c1` (configuration not stated), 2.03 µM.
On to `CCOc1cccc(=O)c2c(C)n(C)c(C)c12`, for which the IC50 is 11.6 µM.
On to `O=C(NCCCO)c1ccc2nc(-c3ccco3)c(-c3ccco3)nc2c1`, for which the IC50 is 0.72 µM.
In the case of `CCn1c(SC(C)C(=O)O)nc2sc3c(c2c1=O)CCC3` (configuration not stated), the IC50 was 8.89 µM.
For `Cc1cc2ccccc2n1CCNC(=O)C1CCCCC1`, the IC50 is 37.2 µM.
As for `O=C1c2c(O)ccc(O)c2C(=O)c2c(NCCNCCO)ccc(NCCNCCO)c21`, the figure is 7.96 µM; as for `N/C(=N\N=C/c1ccc(-c2ccc(O)c(C(=O)O)c2)o1)N[N+](=O)[O-]`, 15.2 µM; as for `CC1CCC/C(=C\Nc2ccc(O)cc2)C1=O` (configuration not stated), 17.2 µM.
As for `O=C1NC(=S)N(c2ccccc2)C(=O)/C1=C/c1ccco1`, the figure is 9.42 µM; as for `Cc1ccc2c(c1)c(=O)c1c3n2CCN(C(=O)CCl)C3CC1` (configuration not stated), 10.8 µM.
The result for `Cc1cc(SCC(=O)N/N=C/c2ccc(O)c(O)c2O)c(C)cc1Br` reads 13.3 µM; that for `O=C(CSc1nc2cc([N+](=O)[O-])ccc2n1-c1ccccc1)NCc1ccc2c(c1)OCO2`, 46.6 µM; that for `CC(C)c1ccc(N2C(=O)NC(=O)/C(=C\C=C\c3ccco3)C2=O)cc1`, 9.35 µM.
For the molecule `CC1=C(C(=O)Nc2ccccc2)C(c2ccc(C)o2)n2c(s/c(=C\c3ccco3)c2=O)=N1` (configuration not stated), the IC50 is 5.34 µM.
In the case of `Cc1ccccc1NC(=O)c1c(C)[nH]c(=S)c(C#N)c1-c1ccco1`, the IC50 is 18.7 µM.
As for `O=C1NC(=S)S/C1=C\C=C\c1ccc([N+](=O)[O-])o1`, the figure is 1.84 µM; as for `c1coc(-c2nc3ccccc3nc2-c2ccco2)c1`, 1.39 µM.
Consider `CCn1cc(CNC(=O)c2ccc(Cl)c([N+](=O)[O-])c2)c(C)n1`, for which the IC50 was 15.7 µM.
The result for `COC(=O)c1ccccc1-c1c2ccc(=N)cc-2oc2cc(N)ccc12` reads 13.6 µM; that for `Cc1ccc(/C=C/C(=O)Nc2ccc([N+](=O)[O-])c(NC(=O)/C=C/c3ccc(C)o3)c2)o1`, 1.49 µM.
As for `COCCNC(=O)Nc1ccc2nc(-c3ccco3)c(-c3ccco3)nc2c1`, the figure is 0.25 µM; as for `NC(=O)c1cc(N)ccc1N1CCCC1`, 1.12 µM; as for `COC(=O)CSc1nnc(CNC(=O)Cc2ccccc2)n1-c1ccccc1OC`, 77.7 µM.
`O=C1CC(Nc2ccc(N3CCOCC3)cc2)C(=O)N1c1ccccc1F` (configuration not stated): the IC50 is 1.65 µM.
As for `O=C(c1coc(=O)c(Br)c1)N1CCCc2ccccc21`, the figure is 24.3 µM; as for `NC(=O)COC(=O)c1ccc(Oc2ccccc2)cc1`, 98.9 µM.
The result for `NC(=O)c1c(NC(=O)c2ccc(S(=O)(=O)N3CCOCC3)cc2)sc2c1CCCCC2` reads 98.3 µM.
In the case of `COc1cc(OC)c2c(O)c3c(c(-c4c5c(c(O)c6c(OC)cc(OC)cc46)CO[C@@H](C)[C@H]5O)c2c1)[C@H](O)[C@H](C)OC3`, the IC50 was 4.61 µM.
The result for `CCOc1ccc2[nH]c(=O)c(CN(Cc3nnnn3Cc3ccco3)C3CCCCC3)cc2c1` reads 4.82 µM.
On to `Cc1ccc(C(=O)C2=C(O)C(=O)N(c3ncccn3)C2c2ccc(F)cc2)o1` (configuration not stated), for which the IC50 is 21.8 µM.
Consider `NS(=O)(=O)c1ccc(N=Nc2c[nH]c(=O)c(O)c2)cc1`, for which the IC50 was 4.08 µM.
The result for `CCOc1ccccc1C(O)C1=CC(=O)c2ccccc2C1=O` (configuration not stated) reads 7.61 µM; that for `O=C(O)c1cc2cccc(S(=O)(=O)N3CCOCC3)c2cc1O`, 38 µM.
The result for `Cc1cc(C)c(S(=O)(=O)NCC2CCC(C(=O)N3CCC4(CC3)OCCO4)CC2)c(C)c1` (configuration not stated) reads 39.6 µM.
As for `CC(=O)Nc1ccc(NC(=O)CSCc2cnn(-c3ccccc3)c2-n2cccc2)cc1`, the 50% inhibitory concentration (IC50) was 25.9 µM.
As for `NS(=O)(=O)c1ccc(CCNC(=O)CCS(=O)(=O)c2ccc(Br)cc2)cc1`, the figure is 25 µM; as for `COc1ccc(Nc2ccc(OC)cc2)cc1`, 6.72 µM; as for `O=S(=O)(Nc1nccs1)c1ccc(Nc2nnc(-c3ccccc3)c3ccccc23)cc1`, 84.3 µM.
As for `COc1cccc(C2NC(=O)NC(O)(C(F)(F)F)C2C(=O)c2cccnc2)c1OC` (configuration not stated), the IC50 is 47.1 µM.
With `O=C1c2cccnc2C(Nc2ccccc2)N1Cc1ccco1` (configuration not stated), the IC50 is 22.9 µM.
As for `CC1(C)CCCN(C(=O)c2coc(=O)c(Br)c2)C1`, the figure is 3.54 µM; as for `O=C(Cc1cc(=O)[nH][nH]1)N/N=C/C=C/c1ccccc1`, 26.4 µM.
The result for `C(=C\c1ccco1)/c1ccc2ccccc2n1` reads 5.09 µM.
The result for `CC1=CC2(O)OCCN(CCO)C2=CC1=O` (configuration not stated) reads 7.05 µM; that for `CS(=O)(=O)c1ccc2c(c1)SC1=NC(=O)/C(=C/c3ccco3)C(=N)N12`, 6.32 µM; that for `O=[N+]([O-])c1cc(/C=N\Nc2nccs2)ccc1O`, 1.62 µM.
`O=C1NC(=O)N(Cc2ccco2)C(=O)/C1=C/C=C/c1ccco1`: the IC50 is 0.91 µM.
Consider `N#Cc1c(-c2ccco2)cc(-c2ccccc2)[nH]c1=O`, for which the IC50 is 14 µM.
For `CS(=O)(=O)c1ccc(C(=O)Nc2nc(-c3ccco3)c(-c3ccco3)s2)cc1`, the IC50 is 22.1 µM.
As for `CCOc1cc(N2CCOCC2)c(OCC)cc1NS(=O)(=O)c1ccc(Cl)s1`, the figure is 3.22 µM.
As for `COc1ccccc1-n1cnc2cc(NCc3cccs3)ccc21`, the figure is 82.7 µM; as for `N#CC1=C(N)C2=C(N3CCCCC3)CCCC2C1(C#N)C#N` (configuration not stated), 1.7 µM; as for `CC(=O)OCCCNc1cc(Sc2nc3ccccc3s2)c2nonc2c1[N+](=O)[O-]`, 53.1 µM.
As for `CCN(CC)C(=O)c1ccc2c(c1)C1C(Cl)C(Sc3ccccc3[N+](=O)[O-])CC1C(C(=O)O)N2` (configuration not stated), the figure is 13 µM; as for `O=c1oc2c(O)c(O)cc3c(=O)oc4c(O)c(O)cc1c4c23`, 0.45 µM; as for `CN(C)[C@@H]1C(=O)C(C(=O)NCN2CCCC2)=C(O)[C@@]2(O)C(=O)C3=C(O)c4c(O)cccc4[C@@](C)(O)C3CC12` (some centres not stated), 0.33 µM.
With `Cc1ccc(C(=O)Nc2ccc(O)c(C(=O)O)c2)o1`, the concentration for half-maximal inhibition (IC50) was 3.87 µM.
As for `CC(C)N1C(=O)/C(=C/C=C/c2ccco2)C(=O)N(Cc2ccco2)C1=O`, the figure is 2.19 µM.
For `O=C1CCCC(O)=C1N=Nc1ccc(S(=O)(=O)N2CCOCC2)cc1`, the IC50 is 6.66 µM.
`Oc1ccccc1/C=N/c1c(-c2ccco2)nc2ccccn12`: the half-inhibitory concentration (IC50) is 0.48 µM.
As for `CNc1cccccc1=S`, the figure is 0.51 µM.
For the molecule `Cc1cc(C(=O)NNC(=O)/C=C/c2ccco2)c(C)o1`, the IC50 was 13.3 µM.
The result for `O=[N+]([O-])c1cc2ccccc2c(O)c1O` reads 22.2 µM; that for `Nc1cccc2c(O)cc(S(=O)(=O)O)cc12`, 2 µM.
The result for `C=C(c1ccc(OCCO)cc1)c1ccc(OCCO)cc1` reads 56.6 µM.
